Consider 32 molecules from patent US5629347A, “Aromatic compounds, pharmaceutical compositions containing them and their use in therapy” (Merck Sharp & Dohme Ltd., priority 1991, dated 1997).

Where a name gives a salt, the structure may show the parent alone.

Sequence of human NK1R (P25103 whole entry): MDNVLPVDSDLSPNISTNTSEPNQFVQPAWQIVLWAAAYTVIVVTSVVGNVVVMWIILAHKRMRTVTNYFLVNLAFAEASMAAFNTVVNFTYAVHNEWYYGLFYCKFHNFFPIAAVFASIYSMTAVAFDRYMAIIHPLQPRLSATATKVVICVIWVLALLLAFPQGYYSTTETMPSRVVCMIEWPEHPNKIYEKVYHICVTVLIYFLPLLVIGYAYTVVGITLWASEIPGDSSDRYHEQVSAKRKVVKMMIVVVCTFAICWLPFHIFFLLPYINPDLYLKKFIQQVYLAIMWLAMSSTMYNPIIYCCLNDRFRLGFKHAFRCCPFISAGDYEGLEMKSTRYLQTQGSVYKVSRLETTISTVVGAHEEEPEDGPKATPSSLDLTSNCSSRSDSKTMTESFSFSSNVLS

One test has as its target human NK1R (Homo sapiens, UniProt P25103). As to the kind of experiment: biochemical. In kind it is binding. As to conditions: 1 h; @ 0.3 μM; read-out: Substance P antagonism (%). As to the method:
To express the cloned human neurokinin-1-receotor (NK1R) transiently in COS, the cDNA for the human NK1R was cloned into the expression vector pCDM9 which was derived from pCDM8 (INVITROGEN) by inserting the ampicillin resistance gene (nucleotide 1973 to 2964 from BLUESCRIPT SK+ (trademark, […], La Jolla, Calif., U.S.A.)) into the Sac II site. Transfection of 20 ug of the plasmid DNA into 10 million COS cells was achieved by electroporation in 800 μl of transfection buffer (135 mM NaCl, 1.2 mM CaCl2, 1.2 mM MgCl2, 2.4 mM K2 HPO4, 0.6 mM KH2 PO4, 10 mM glucose, 10 mM N-2-hydroxyethyl-piperazine-N'-2-ethane sulphonic acid (HEPES) pH 7.4) at 260 V and 950 μF using the IBI GENEZAPPER (trademark IBI, New Haven, Conn., U.S.A.). The cells were incubated in 10% fetal calf serum, 2 mM glutamine, 100 U/ml penicillin-streptomycin, and 90% DMEM media (GIBCO, Grand Island, N.Y., U.S.A.) in 5% CO2 at 37° C. for three days before the binding assay.
To establish a stable cell line expressing cloned human NK1R, the cDNA was subcloned into the vector pRcCMV (INVITROGEN). Transfection of 20 ug of the plasmid DNA into CHO cells was achieved by electroporation in 800 μl of transfection buffer supplemented with 0.625 mg/ml Herring sperm DNA at 300 V and 950 μF using the IBI GENEZAPPER (IBI). The transfected cells were incubated. in CHO media [10% fetal calf serum, 100 U/ml penicillin-streptomycin, 2 mM glutamine, 1/500 hypoxanthinethymidine (ATCC), 90% IMDM media (JRH BIOSCIENCES, Lenexa, Kans., U.S.A.), 0.7 mg/ml G418 (GIBCO)] in 5% CO2 at 37° C. until colonies were visible. Each colony was separated and propagated. The cell clone with the highest number of human NK1R was selected for subsequent applications such as drug screening.
The binding assay of human NK1R expressed in either COS or CHO cells is based on the use of ^125 I-substance P (^125 I-SP, from DU PONT, Boston, Mass.) as a radioactively labeled ligand which competes with unlabeled substance P or any other ligand for binding to the human NK1R. […] The tubes were incubated at 4° C. or at room temperature for 1 hour with gentle shaking. The bound radioactivity was separated from unbound radioactivity by GF/C filter (BRANDEL, Gaithersburg, Md.) which was prewetted with 0.1% polyethylenimine. The filter was washed with 3 ml of wash buffer (50 mM Tris pH 7.5, 5 mM MnCl2, 150 mM NaCl) three times and its radioactivity was determined by gamma counter.
As to `CC(c1cccc(Cl)c1)C(N)COCc1cc(C(F)(F)F)cc(C(F)(F)F)c1` (single isomer, unassigned) [71 (diastereomer B), 2-Amino-1-((3,5-bis(trifluoromethyl)phenyl)methyloxy)-3-(3-chlorophenyl)-butane], the inhibition at 0.3 µM came to 42%.

The same test, now with this note: 1 h; @ 10 μM; read-out: Substance P antagonism (%).
Turning to `COc1ccccc1CNC(=O)C(NC(=O)OC(C)(C)C)C(c1ccccc1)c1ccccc1` (centres unmarked) [Example 3, 2-t-Butoxycarbonylamino-3,3-diphenylpropanoyl-(2-methoxyphenyl)methylamide], the inhibition at 10 µM was 77%.

The test is the same for the next values; noted with them: displacement of 125I-substance P; human NK1R in COS or CHO cells.
A word on the IC50: it is the concentration that gives 50% inhibition. A higher IC50 goes with lower potency. For `COc1cccc(C(Cc2ccccc2)C(N)COCc2cc(C(F)(F)F)cc(C(F)(F)F)c2)c1` (mixture of isomers) [70 (mixture of diastereomers), 2-Amino-1-((3,5-bis(trifluoromethyl)phenyl)methyloxy)-3-(3-methoxyphenyl)-4-phenylbutane], the concentration for half-maximal inhibition (IC50) was 0.16 µM.
Same read-out and setting: the same measure for `CC(NC(COCc1cc(C(F)(F)F)cc(C(F)(F)F)c1)C(c1ccccc1)c1ccccc1)C(N)=O` (single isomer, unassigned) [41 (diastereomer A), 1-((3',5'-Bis(trifluoromethyl)phenyl)methyloxy)-2-((1-(carboxamido)ethyl)ammonium)-3,3-diphenylpropane oxalate salt]: 0.0004 µM.
`CC(NC(COCc1cc(C(F)(F)F)cc(C(F)(F)F)c1)C(c1ccccc1)c1ccccc1)C(N)=O` (single isomer, unassigned) [41 (diastereomer B), 1-((3',5'-Bis(trifluoromethyl)phenyl)methyloxy)-2-((1-(carboxamido)ethyl)ammonium)-3,3-diphenylpropane oxalate salt] displayed a 50% inhibitory concentration (IC50) of 0.0005 µM.
Still for that read-out and setting: the same measure for `CC(N[C@H](COCc1cc(C(F)(F)F)cc(C(F)(F)F)c1)C(c1ccccc1)c1ccccc1)C(N)=O` (single isomer, unassigned) [58 (diastereomer A)]: 0.0004 µM; for `CC(N[C@H](COCc1cc(C(F)(F)F)cc(C(F)(F)F)c1)C(c1ccccc1)c1ccccc1)C(N)=O` (single isomer, unassigned) [58 (diastereomer B)]: 0.0005 µM.
Still for that read-out and setting: the same measure for `Cc1cc(C)cc(COCC(N)C(c2ccccc2)c2ccccc2)c1` (centres unmarked) [Example 1, 2-Ammoninm-1-((3,5-dimethylphenyl)methyloxy)-3,3-diphenylpronane tosylate salt]: 0.0055 µM; for `Cc1cc(C)cc(COCC(C(c2ccccc2)c2ccccc2)N(C)C)c1` (centres unmarked) [Example 2, 2-Dimethylammonium-1-((3,5-dimethylphenyl)methyloxy)-3,3-diphenylpropane tosylate salt]: 0.0024 µM; for `COc1ccccc1CNC(=O)C(N)C(c1ccccc1)c1ccccc1` (centres unmarked) [Example 4, 2-Ammonium-3,3-diphenylpropanoyl-(2-methoxyphenyl)methylamide tosylate salt]: 0.7 µM.
Same read-out and setting: then `Cc1cc(C)cc(COC(=O)C(N)C(c2ccccc2)c2ccccc2)c1` (centres unmarked) [Example 5, (3,5-Dimethylphenyl)methyl 2-ammonium-3,3-diphenylpropanoate tosylate salt], with 0.16 µM; and `CNC(COCc1cc(C)cc(C)c1)C(c1ccccc1)c1ccccc1` (centres unmarked) [Example 6, 2-Methylammonium-1-((3,5-dimethylphenyl)methyloxy)-3,3-diphenylpropane oxalate salt], with 0.01 µM.
`CCNC(COCc1cc(C)cc(C)c1)C(c1ccccc1)c1ccccc1` (centres unmarked) [Example 7, 2-Ethylammonium-1-((3,5-dimethylphenyl)methyloxy)-3,3-diphenylpropane oxalate salt] yielded a concentration for half-maximal inhibition (IC50) of 0.02 µM.
`CCCNC(COCc1cc(C)cc(C)c1)C(c1ccccc1)c1ccccc1` (centres unmarked) [Example 8, 2-Propylammonium-1-((3,5-dimethylphenyl)methyloxy)-3,3-diphenylpropane oxalate salt] returned a half-inhibitory concentration (IC50) of 0.09 µM.
Still for that read-out and setting: the same measure for `Cc1cc(C)cc(COCC(NCC2CC2)C(c2ccccc2)c2ccccc2)c1` (centres unmarked) [Example 9, 2-Cyclopropylmethylammonium-1-((3,5-dimethylphenyl)methyloxy)-3,3-diphenylpropane tosylate salt]: 0.1 µM; for `C=CCNC(COCc1cc(C)cc(C)c1)C(c1ccccc1)c1ccccc1` (centres unmarked) [Example 10, 2-Allylammonium-1-((3,5-dimethylphenyl)methyloxy)-3,3-diphenylpropane oxalate salt]: 0.07 µM; for `Cc1cc(C)cc(COCC(NCc2ccccc2)C(c2ccccc2)c2ccccc2)c1` (centres unmarked) [Example 11, 2-Benzylammonium-1-((3,5-dimethylphenyl)methyloxy)-3,3-diphenyl propane]: 0.32 µM.
The same measure, in the same setting: then `Cc1cc(C)cc(COCC(C(c2ccccc2)c2ccccc2)[N+](C)(C)C)c1` (centres unmarked) [Example 12, 1-((3,5-Dimethylphenyl)methyloxy)-3,3-diphenyl-2-(N,N,N-trimethylammonium)propane iodide salt], with 0.019 µM; and `Cc1cc(C)cc(COCC(C(c2ccccc2)c2ccccc2)N2CCCC2)c1` (centres unmarked) [Example 13, 3,3-Diphenyl-1-((3,5-dimethylphenyl)methyloxy)-2-(1-pyrrolidinium)propane tosylate salt], with 0.02 µM; and `Cc1cc(C)cc(COCC(C(c2ccccc2)c2ccccc2)N2CCCCC2)c1` (centres unmarked) [Example 14, 3,3-Diphenyl-1-((3,5-dimethylphenyl)methyloxy)-2-(piperidin-1-yl)propane hydrochloride salt], with 0.07 µM.
Same read-out and setting: the same measure for `Cc1cc(C)cc(COCC(C(c2ccccc2)c2ccccc2)N2CCOCC2)c1` (centres unmarked) [Example 15, 3,3-Diphenyl-1-((3,5-dimethylphenyl)methyloxy)-2-(4-morpholino)propane]: 0.1 µM.
Take `NC(COCc1cc(Cl)cc(Cl)c1)C(c1ccccc1)c1ccccc1` (centres unmarked) [Example 18, 2-Ammouinm-1-((3,5-dichlorophenyl)methyloxy)-3,3-diphenylpropane tosylate salt]: the concentration for half-maximal inhibition (IC50) is 0.022 µM.
As to `NC(COCc1cccc(Cl)c1)C(c1ccccc1)c1ccccc1` (centres unmarked) [Example 19, 2-Ammonium-1-((3-chlorophenyl)methyloxy)-3,3-diphenylpropane tosylate salt], the IC50 was determined as 0.12 µM.
The same measure, in the same setting: then `COC(=O)CNC(COCc1cc(C)cc(C)c1)C(c1ccccc1)c1ccccc1` (centres unmarked) [Example 20, 2-(N-(Carbomethoxymethyl)ammonium)-1-((3,5-dimethylphenyl)methyloxy)-3,3-diphenylpropane tosylate salt], with 0.04 µM.
Still for that read-out and setting: then `Cc1cc(C)cc(COCC(NCC(N)=O)C(c2ccccc2)c2ccccc2)c1` (centres unmarked) [Example 21, 2-(((Carboxamido)methyl)amino)-1-((3,5-dimethylphenyl)methyloxy)-3,3-diphenylpropane], with 0.003 µM; and `Cc1cc(C)cc(COCC(NCCO)C(c2ccccc2)c2ccccc2)c1` (centres unmarked) [Example 22, 2-(N-(2-Hydroxyethyl)ammonium)-1-((3,5-dimethylphenyl)methyloxy)-3,3-diphenylpropane oxalate salt], with 0.045 µM.
On the same count and under the same terms, then `Cc1cc(C)cc(COCC(NC=O)C(c2ccccc2)c2ccccc2)c1` (centres unmarked) [Example 23, 2-Formamido-1-((3,5-dimethylphenyl)methyloxy)-3,3-diphenylpronane], with 0.035 µM.
The molecule `NC(COCc1cccc([N+](=O)[O-])c1)C(c1ccccc1)c1ccccc1` (centres unmarked) [Example 24, 2-Ammonium-1-((3-nitrophenyl)methyloxy)-3,3-diphenylpropane oxalate salt] had a half-inhibitory concentration (IC50) of 0.4 µM.
Still for that read-out and setting: then `NC(COCc1ccccc1)C(c1ccccc1)c1ccccc1` (centres unmarked) [Example 25, 2-Ammonium-1-benzyloxy-3,3-diphenylpropane oxalate salt], with 0.6 µM.
Still for that read-out and setting: the same measure for `NC(COCc1cccc(I)c1)C(c1ccccc1)c1ccccc1` (centres unmarked) [Example 26, oxalate salt]: 0.14 µM.
On the same count and under the same terms, the same measure for `COc1cc(COCC(N)C(c2ccccc2)c2ccccc2)cc(OC)c1` (centres unmarked) [Example 27, 2-Ammonium-1-((3,5-dimethoxyphenyl)methyloxy-3,3-diphenylpropane oxalate salt]: 0.07 µM.
Molecule `Cc1ccc(C)c(COCC(N)C(c2ccccc2)c2ccccc2)c1` (centres unmarked) [Example 28, 2-Ammonium-1-((2,5-dimethylphenyl)methyloxy)-3,3-diphenylpropane oxalate salt] returned a 50% inhibitory concentration (IC50) of 0.3 µM.
